# Measurements: patent US20090197955A1, “METHODS OF IMPROVING DHA DEPOSITION AND RELATED FUNCTION AND/OR DEVELOPMENT” (Monsanto Company, priority 2008, published 2009)
# What was measured:
# [1] = prior studies; cited from earlier work
# [2] = Brain outer cortex lipid fatty acid analysis, control vs 0.8% SDA; assay type: in vivo, pigs
# Protocol: About 1 g of frozen heart or brain tissue was pulverized in a stainless steel mortar and pestle maintained at −70° C. It was then suspended in 2 mL of ice-cold saline and sonicated on ice to thoroughly disperse the tissue. The lipids were extracted with methylene chloride:methanol. […] After extraction of the fatty acid methyl esters (FAME) with hexane:water, their composition was analyzed in a GC2010 (Shimadzu Scientific Instruments, Columbia, Md.) using a fused silica capillary columns (SP-2560, 100 m length, 0.25 mm internal diameter, 0.25 um film thickness, Supelco, Bellefonte, Pa.). A weighed external standard fatty acid (FA) mixture (GLC727, NuCheck Prep, Elysian, Minn.) was included to correct for potential differences in FA response factors. The response factor for palmitic acid of is assumed to be 1.0. Results were expressed as a percent of total identified FA (for composition endpoints) and as mg FA/g tissue. To further explore the effect of SDA on brain tissue composition, samples from the four control and four high dose (Treatment 5) animals were shaved to isolate the outer cortex. This was done to test the hypothesis that white, myelinated tissue found in the mid brain may not accumulate DHA as readily as gray matter in the cerebral cortex.
# [3] = cited from earlier work
# [4] = Heart phospholipid fatty acid composition of pigs fed SDA; assay type: in vivo; conditions: for Average heart DHA level, percent of total fatty acids / Average heart EPA level, percent of total fatty acids / Average heart SDA level, percent of total fatty acids: 35 days
# Protocol: (§1) After completion of the feeding phase, animals were slaughtered and tissues were collected for evaluation. A sample of brain was obtained by making a cup from the occipital condyle at the base of the skull to the back of the eye. A portion of the brain from the cerebral cortex, and some of the mid brain was collected. About 1 g of frozen heart or brain tissue was pulverized in a stainless steel mortar and pestle maintained at −70° C. It was then suspended in 2 mL of ice-cold saline and sonicated on ice to thoroughly disperse the tissue. The lipids were extracted with methylene chloride:methanol. The PL fractions were isolated by thin layer chromatography and methylated for 10 minutes in BF3-methanol at 100° C. After extraction of the fatty acid methyl esters (FAME) with hexane:water, their composition was analyzed in a GC2010 (Shimadzu Scientific Instruments, Columbia, Md.) using a fused silica capillary columns (SP-2560, 100 m length, 0.25 mm internal diameter, 0.25 um film thickness, Supelco, Bellefonte, Pa.). A weighed external standard fatty acid (FA) mixture (GLC727, NuCheck Prep, Elysian, Minn.) was included to correct for potential differences in FA response factors. The response factor for palmitic acid of is assumed to be 1.0. Results were expressed as a percent of total identified FA (for composition endpoints) and as mg FA/g tissue.
# [5] = Brain phospholipid fatty acid composition of pigs fed SDA; assay type: in vivo; conditions: for Brain phospholipid DHA, percent of total fatty acids / Brain phospholipid EPA, percent of total fatty acids / Brain phospholipid SDA, percent of total fatty acids: 35 days
# Protocol: as §1, with “In addition to measuring long-chain fatty acid incorporation into tissues, additional research was undertaken to understand the alterations in fatty acid concentration in the brain and heart tissues. In particular, DHA is known to be a significant fraction of brain composition. As such, the following experiments were conducted with brain matter extracted from the pigs used in the study above. After completion” for “After completion”
# [6] = 0.8% SDA (Treatment 5), average
smiles,measurement,setting,value
"CC/C=C\C/C=C\C/C=C\C/C=C\CCCCC(=O)O [SDA, stearidonic acid]",DHA concentrations in blood or tissues after feeding SDA,[1],failed to find evidence of increased DHA concentrations
same,"C14:0, brain outer cortex",[2]; [6],0.50%
same,"C16:0, brain outer cortex",[2]; [6],24.20%
same,"C16:1n7, brain outer cortex",[2]; [6],1.05%
same,"C16:1n7t, brain outer cortex",[2]; [6],0.28%
same,"C18:0, brain outer cortex",[2]; [6],16.53%
same,"C18:1n9, brain outer cortex",[2]; [6],19.14%
same,"C18:1t, brain outer cortex",[2]; [6],0.08%
same,"C18:2n6, brain outer cortex",[2]; [6],0.63%
same,"C18:2n6t, brain outer cortex",[2]; [6],0.23%
same,"C18:3n3, brain outer cortex",[2]; [6],0.15%
same,"C18:3n6, brain outer cortex",[2]; [6],0.02%
same,"C18:4n3, brain outer cortex",[2]; [6],0.02%
same,"C20:1n9, brain outer cortex",[2]; [6],0.23%
same,"C20:2n6, brain outer cortex",[2]; [6],0.06%
same,"C20:3n6, brain outer cortex",[2]; [6],0.35%
same,"C20:4n6, brain outer cortex",[2]; [6],11.48%
same,"C20:5n3, brain outer cortex",[2]; [6],0.15%
same,"C22:4, brain outer cortex",[2]; [6],2.90%
same,"C22:5n3, brain outer cortex",[2]; [6],0.98%
same,"C22:5n6, brain outer cortex",[2]; [6],3.58%
same,"C22:6n3, brain outer cortex",[2]; [6],17.38%
same,"C24:0, brain outer cortex",[2]; [6],0.02%
same,"C24:1n9, brain outer cortex",[2]; [6],0.05%
same,"OMX-3 (Omega 3 Index, sum of EPA and DHA), brain outer cortex",[2]; [6],17.53%
same,DHA and EPA in total lipid extract of the outer cortex region,[2]; Treatment 5 vs control,increase in DHA and EPA
same,Amount of SDA relative to EPA needed to enrich blood tissues with an equivalent amount of EPA,[3],3 times
same,"Average heart DHA level, percent of total fatty acids",[4]; SDA 0.2%,0.49%
same,"Average heart EPA level, percent of total fatty acids",[4]; SDA 0.2%,1.82%
same,"Average heart SDA level, percent of total fatty acids",[4]; SDA 0.2%,0.05%
same,"Average heart DHA level, percent of total fatty acids",[4]; SDA 0.4%,0.42%
same,"Average heart EPA level, percent of total fatty acids",[4]; SDA 0.4%,3.86%
same,"Average heart SDA level, percent of total fatty acids",[4]; SDA 0.4%,0.13%
same,"Average heart DHA level, percent of total fatty acids",[4]; SDA 0.6%,0.57%
same,"Average heart EPA level, percent of total fatty acids",[4]; SDA 0.6%,4.83%
same,"Average heart SDA level, percent of total fatty acids",[4]; SDA 0.6%,0.19%
same,"Average heart DHA level, percent of total fatty acids",[4]; SDA 0.8%,0.62%
same,"Average heart EPA level, percent of total fatty acids",[4]; SDA 0.8%,6.71%
same,"Average heart SDA level, percent of total fatty acids",[4]; SDA 0.8%,0.36%
same,"Dose response for deposition of SDA, EPA and DHA in heart phospholipids",[4]; regression analysis on the mean response at each dose level,statistically significant (p<0.05)
same,"Brain phospholipid DHA, percent of total fatty acids",[5]; SDA 0.2%,10.07%
same,"Brain phospholipid EPA, percent of total fatty acids",[5]; SDA 0.2%,0.02%
same,"Brain phospholipid SDA, percent of total fatty acids",[5]; SDA 0.2%,0.01%
same,"Brain phospholipid DHA, percent of total fatty acids",[5]; SDA 0.4%,9.15%
same,"Brain phospholipid EPA, percent of total fatty acids",[5]; SDA 0.4%,0.04%
same,"Brain phospholipid SDA, percent of total fatty acids",[5]; SDA 0.4%,0.01%
same,"Brain phospholipid DHA, percent of total fatty acids",[5]; SDA 0.6%,10.99%
same,"Brain phospholipid EPA, percent of total fatty acids",[5]; SDA 0.6%,0.06%
same,"Brain phospholipid SDA, percent of total fatty acids",[5]; SDA 0.6%,0.01%
same,"Brain phospholipid DHA, percent of total fatty acids",[5]; SDA 0.8%,11.21%
same,"Brain phospholipid EPA, percent of total fatty acids",[5]; SDA 0.8%,0.06%
same,"Brain phospholipid SDA, percent of total fatty acids",[5]; SDA 0.8%,0.01%
same,Deposition of EPA and DHA in the brain,[5]; SDA feeding,dose response deposition of EPA and DHA in the brain
